Values of other authors in patent publication US20140093563A1, “FEBUXOSTAT COMPOSITIONS” (RANBAXY LABORATORIES LIMITED, priority 2011, published 2014).

Solubility (BCS): low solubility
SMILES: Cc1nc(-c2ccc(OCC(C)C)c(C#N)c2)sc1C(=O)O [febuxostat, 2-(3-cyano-4-isobutyloxyphenyl)-4-methyl-5-thiazolecarboxylic acid]
